Tests used:
Type in all cases: in vivo
Spodoptera eridania = assay: Action on Southern Armyworm (Spodoptera eridania), 2nd Instar Larvae; conditions: 300 ppm; 2nd instar larvae; 4 days after treatment
Procedure, shortened: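 Compounds in 50% acetone/water with 0.01% nonionic surfactant sprayed electrostatically onto Lima bean plants at 1st true leaf stage. After drying, 10–11 2nd-instar larvae bagged with each pot, kept about 25 °C, 20–40% RH. Mortality and reduced feeding scored at 4 days vs untreated plants.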

Dichromothrips corbetti = assay: Action on Orchid Thrips (Dichromothrips corbetti); conditions: 300 ppm; adults; 72 hours after treatment
Experimental: Example B2: Action on Orchid Thrips (Dichromothrips corbetti)
Dichromothrips corbetti adults used for bioassay were obtained from a colony maintained continuously under laboratory conditions. For testing purposes, the test compound is diluted in a 1:1 mixture of acetone: water (vol: vol), plus Kinetic® HV at a rate of 0.01% v/v.
Thrips potency of each compound was evaluated by using a floral-immersion technique. All petals of individual, intact orchid flowers were dipped into treatment solution and allowed to dryin Petri dishes. Treated petals were placed into individual re-sealable plastic along with about 20 adult thrips. All test arenas were held under continuous light and a temperature of about 28 °C for duration of the assay. After 3 days, the numbers of live thrips were counted on each petal. The percent mortality was recorded 72 hours after treatment.

Bemisia argentifolii = assay: Action on Silverleaf Whitefly (Bemisia argentifolii) (Adults); conditions: 300 ppm, 3 days after treatment
Experimental: Example B4: Action on Silverleaf Whitefly (Bemisia argentifolii) (Adults)
The active compounds were formulated by a Tecan liquid handler in 100% cyclohexanone as a 10,000 ppm solution supplied in tubes. The 10,000 ppm solution was serially diluted in 100% cyclohexanone to make interim solutions. These served as stock solutions for which final dilutions were made by the Tecan in 50% acetone: 50% water (v/v) into 5 or 10 ml glass vials. A nonionic surfactant (Kinetic®) was included in the solution at a volume of 0.01% (v/v). The vials were then inserted into an automated electrostatic sprayer equipped with an atomizing nozzle for application to plants/insects.
Cotton plants at the cotyledon stage (one plant per pot) were sprayed by an automated electrostatic plant sprayer equipped with an atomizing spray nozzle. The plants were dried in the sprayer fume hood and then removed from the sprayer. Each pot was placed into a plastic cup and about 10 to 12 whitefly adults (approximately 3-5 days old) were introduced. The insects were collected using an aspirator and a nontoxic Tygon® tubing connected to a barrier pipette tip. The tip, containing the collected insects, was then gently inserted into the soil containing the treated plant, allowing insects to crawl out of the tip to reach the foliage for feeding. […] Mortality was assessed 3 days after treatment, compared to untreated control plants.

Plutella xylostella = assay: Action on Diamond Back Moth (Plutella xylostella), cabbage leaf dip, 3rd instar larvae; conditions: 300 ppm; 3rd instar larvae; 72 hours after treatment
Procedure, shortened: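 Cabbage leaves dipped in compound solution (1:1 water:acetone, 0.01% v/v surfactant), air-dried, then infested with ten 3rd-instar larvae in petri dishes on moist filter paper. Mortality scored at 72 h after treatment; feeding damage rated on a 0–100% scale.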

Anthonomus grandis = assay: Action on Boll Weevil (Anthonomus grandis); conditions: 800 ppm; egg and larval mortality; 5 days
Procedure, shortened: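 Compounds in 75:25 water:DMSO sprayed at several concentrations onto insect diet in microtiter wells holding 5-10 eggs, two replicates. Plates kept 5 days at about 25±1 °C and 75±5% RH; egg and larval mortality scored visually.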

Aedes aegypti = assay: whole plant or invertebrate; conditions: 800 ppm; larvae; 2 days
Procedure, shortened: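 Freshly hatched larvae (5-15 per well) were held in tap water, and compounds formulated in 25% DMSO/water were sprayed onto diet at several concentrations in duplicate. Larval mortality was scored visually after 2 days at 28±1 °C, 80±5% RH.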

Heliothis virescens = assay: Action on Tobacco Budworm (Heliothis virescens); conditions: 800 ppm; egg and larval mortality; 5 days
Procedure, shortened: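 Compounds in 25% DMSO/75% water were sprayed at several concentrations onto insect diet in microtiter wells holding 15-25 eggs, two replications. After 5 days at about 28±1 °C and 80±5% RH, egg and larval mortality was scored visually.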

Cc1ccc(C(C)C)c(N2C(=O)CS/C2=N\C(=O)Nc2ccc(-n3cc(NC(=O)c4ccc(OC(F)(F)F)cc4)c(C)n3)cc2F)c1 [Example C-6]
mortality in comparison with untreated controls (Spodoptera eridania): at least 75%
mortality in comparison with untreated controls (Dichromothrips corbetti): at least 75%
mortality in comparison with untreated controls (Bemisia argentifolii): at least 75%
mortality in comparison with untreated controls (Plutella xylostella): at least 75%
mortality in comparison with untreated controls (Anthonomus grandis): at least 75%
mortality in comparison with untreated controls (Aedes aegypti): at least 50%
mortality in comparison with untreated controls (Heliothis virescens): at least 75%

From patent US20260354380A1, “PYRAZOLO PESTICIDAL COMPOUNDS” (BASF SE, priority 2022, published 2026)
